Experimental findings from patent US20030088061A1, “Materials and methods to modulate ligand binding/enzymatic activity of alpha/beta proteins containing an allosteric regulatory site” (priority 2000, published 2003) are described below.

What all share (type): cell-based
Holding throughout (settings): PMA-treated JY cells

One test deals with T1, α4β7 (Homo sapiens, UniProt P13612+P26010).
T1 construct: endogenous in cells; host or cells: JY cells
The experiment in a line: JY/α4β7 cell adhesion to MAdCAM-1/Ig. As to the method:
(§1) To assess the selectivity of each compound, an IC50 value was determined for additional binding partner compounds JY/αVβ3 and vitronectin, JY/α4β1 and VCAM/Ig, JY/αdβ2 and VCAM, JY/[…] and ICAM-1, JY/αMβ2 and iC3b, and JY/α4β7 and MAdCAM-1.
(§2) For each IC50 assay, 50 μl of the ligand diluted in 50 mM bicarbonate buffer (pH 9.6) was dispensed per well of an Immulon-4 plate. A single plate was used to test two different ligands, each in triplicate, The coating concentration for the various ligands was as follows: VCAM-1/Ig at 2.0 μg/ml; ICAM-1/Ig at 5.0 μg/ml; vitronectin at 0.5 μg/ml; MAdCAM-1/Ig at 3.0 μg/ml, and iC3b at 5.0 μg/ml. The capture antibody, e.g. anti-CD18 monoclonal antibody TS1/22, was added at a concentration of 10 μg/ml in 50 μl/well. Ligand-coated plates were covered and stored overnight at 4° C. The following day, the contents of each well was decanted, and each plate was washed three times with 200 μl/well D-PBS. The plate was then blocked by the addition of 300 μl/well of 1% BSA/D-PBS solution. Each plate was again covered and incubated at room temperature for at least 1 hour.
(§3) Prior to transfer to the adhesion plate, the compounds were initially diluted by transferring 4.2 μl of the diluted compounds to a 96-well deepwell titer plate containing 0.7 ml/well of RPMI 1640, 0.1% BSA, and 3 ng/ml PMA (Sigma Corp., St. Louis, Mo.) pre-warmed to 37° C. The 1% BSA/D-PBS blocking solution was decanted from the 96-well Immulon-4 plates and replaced with 0.2 ml of diluted compound. For each 96-well plate to be screened, approximately 8×10^6 cells were collected by centrifugation and resuspended in adhesion media (RPMI 1640 containing 0.1% BSA) to a final concentration of 10^6/ml. To prevent PMA-dependent homotypic aggregation in the adhesion assay, the anti-CD18 antibody 22F12C (ICOS Corp., Bothell, Wash.) was added to the cell suspensions to a final concentration of 10 μg/ml, and the cells were incubated at 37° C. for 15 min. This antibody was not added to CD18-dependent adhesion assays involving JY/αLβ2, JY/αdβ2 or JY/αMβ2 and their corresponding ligands ICAM-1, VCAM-1, or iC3b.
(§4) The adhesion assay was initiated by addition of 100 μl of the cell suspension to each well of the Immulon-4 plate. […] Adherent cells were quantitated by determining the absorbance at 570 nm in a plate spectrophotometer. The percentage of cell binding was determined by using the mean values for each triplicate in a given assay and the formula below. […]
(§5) The four compounds Cmpd K, Cmpd W, Cmpd Z, Cmpd D identified in the primary screen were selected for further specificity profiling, whereby their IC50 values were determined in additional integrin-dependent adhesive events. […]

The target of a further test is T2, αdβ2 (Homo sapiens, UniProt P05107+Q13349).
T2 construct: expressed in transfected cells; host or cells: JY cells, plasmid pMHneo/aD
T2 sequence (Q13349 18-1161): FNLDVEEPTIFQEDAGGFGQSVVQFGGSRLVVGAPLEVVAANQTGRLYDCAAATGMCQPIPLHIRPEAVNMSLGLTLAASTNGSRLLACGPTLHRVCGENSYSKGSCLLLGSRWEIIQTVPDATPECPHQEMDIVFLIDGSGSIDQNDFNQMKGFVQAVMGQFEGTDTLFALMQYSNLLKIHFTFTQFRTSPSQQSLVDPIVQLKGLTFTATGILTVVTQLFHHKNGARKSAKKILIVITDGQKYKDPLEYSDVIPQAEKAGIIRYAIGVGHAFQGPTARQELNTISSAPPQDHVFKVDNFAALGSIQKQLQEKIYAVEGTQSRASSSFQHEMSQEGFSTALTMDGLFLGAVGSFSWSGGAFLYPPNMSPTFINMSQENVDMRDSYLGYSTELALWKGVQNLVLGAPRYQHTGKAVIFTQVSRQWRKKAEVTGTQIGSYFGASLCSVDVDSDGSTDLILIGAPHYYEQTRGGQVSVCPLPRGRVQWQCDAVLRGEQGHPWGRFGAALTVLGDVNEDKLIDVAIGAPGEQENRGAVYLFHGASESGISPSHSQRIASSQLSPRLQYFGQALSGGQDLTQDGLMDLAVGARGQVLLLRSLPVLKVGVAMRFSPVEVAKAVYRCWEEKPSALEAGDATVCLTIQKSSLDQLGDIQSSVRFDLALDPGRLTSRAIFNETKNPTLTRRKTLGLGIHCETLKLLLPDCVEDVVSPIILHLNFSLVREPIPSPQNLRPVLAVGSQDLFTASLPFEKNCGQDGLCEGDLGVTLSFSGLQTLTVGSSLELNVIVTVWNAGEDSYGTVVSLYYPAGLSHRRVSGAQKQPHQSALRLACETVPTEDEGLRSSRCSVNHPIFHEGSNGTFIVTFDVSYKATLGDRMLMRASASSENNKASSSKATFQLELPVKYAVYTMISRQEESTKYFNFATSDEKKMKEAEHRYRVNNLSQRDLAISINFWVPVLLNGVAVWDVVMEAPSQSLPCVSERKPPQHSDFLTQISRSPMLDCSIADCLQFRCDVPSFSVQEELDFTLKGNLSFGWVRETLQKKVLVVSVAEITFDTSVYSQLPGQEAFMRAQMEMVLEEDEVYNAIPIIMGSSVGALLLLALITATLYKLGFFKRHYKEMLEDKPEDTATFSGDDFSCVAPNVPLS
T2 sequence (P05107 23-769 partner): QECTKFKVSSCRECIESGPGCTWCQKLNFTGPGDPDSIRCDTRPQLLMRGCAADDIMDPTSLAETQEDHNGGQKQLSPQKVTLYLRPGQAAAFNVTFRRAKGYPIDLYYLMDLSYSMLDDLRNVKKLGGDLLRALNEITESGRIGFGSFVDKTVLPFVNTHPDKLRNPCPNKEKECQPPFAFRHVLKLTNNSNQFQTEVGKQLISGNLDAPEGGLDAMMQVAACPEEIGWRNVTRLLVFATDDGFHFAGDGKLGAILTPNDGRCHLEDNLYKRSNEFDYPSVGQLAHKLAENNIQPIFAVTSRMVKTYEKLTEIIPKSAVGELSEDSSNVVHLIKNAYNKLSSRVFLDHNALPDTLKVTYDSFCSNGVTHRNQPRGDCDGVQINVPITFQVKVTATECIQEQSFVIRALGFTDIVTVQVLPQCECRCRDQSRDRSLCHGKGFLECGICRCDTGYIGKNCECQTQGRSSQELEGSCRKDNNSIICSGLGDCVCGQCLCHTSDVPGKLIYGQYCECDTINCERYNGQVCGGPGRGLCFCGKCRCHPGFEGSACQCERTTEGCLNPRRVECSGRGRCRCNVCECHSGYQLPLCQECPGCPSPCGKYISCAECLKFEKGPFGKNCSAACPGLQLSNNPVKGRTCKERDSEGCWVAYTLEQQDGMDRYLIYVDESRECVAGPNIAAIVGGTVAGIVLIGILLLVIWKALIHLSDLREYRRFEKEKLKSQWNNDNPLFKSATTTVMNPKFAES
The experiment in a line: JY/αdβ2 cell adhesion to VCAM. The procedure:
as §1, §2, §3, §4, §5

Another test deals with α4β1 (Homo sapiens, UniProt P05556+P13612). Description: JY/α4β1 cell adhesion to VCAM-1/Ig. Also on record: host or cells: JY cells. As to the method: as §1, §2, §3, §4, §5
Chain of α4β1 (P13612 34-1032): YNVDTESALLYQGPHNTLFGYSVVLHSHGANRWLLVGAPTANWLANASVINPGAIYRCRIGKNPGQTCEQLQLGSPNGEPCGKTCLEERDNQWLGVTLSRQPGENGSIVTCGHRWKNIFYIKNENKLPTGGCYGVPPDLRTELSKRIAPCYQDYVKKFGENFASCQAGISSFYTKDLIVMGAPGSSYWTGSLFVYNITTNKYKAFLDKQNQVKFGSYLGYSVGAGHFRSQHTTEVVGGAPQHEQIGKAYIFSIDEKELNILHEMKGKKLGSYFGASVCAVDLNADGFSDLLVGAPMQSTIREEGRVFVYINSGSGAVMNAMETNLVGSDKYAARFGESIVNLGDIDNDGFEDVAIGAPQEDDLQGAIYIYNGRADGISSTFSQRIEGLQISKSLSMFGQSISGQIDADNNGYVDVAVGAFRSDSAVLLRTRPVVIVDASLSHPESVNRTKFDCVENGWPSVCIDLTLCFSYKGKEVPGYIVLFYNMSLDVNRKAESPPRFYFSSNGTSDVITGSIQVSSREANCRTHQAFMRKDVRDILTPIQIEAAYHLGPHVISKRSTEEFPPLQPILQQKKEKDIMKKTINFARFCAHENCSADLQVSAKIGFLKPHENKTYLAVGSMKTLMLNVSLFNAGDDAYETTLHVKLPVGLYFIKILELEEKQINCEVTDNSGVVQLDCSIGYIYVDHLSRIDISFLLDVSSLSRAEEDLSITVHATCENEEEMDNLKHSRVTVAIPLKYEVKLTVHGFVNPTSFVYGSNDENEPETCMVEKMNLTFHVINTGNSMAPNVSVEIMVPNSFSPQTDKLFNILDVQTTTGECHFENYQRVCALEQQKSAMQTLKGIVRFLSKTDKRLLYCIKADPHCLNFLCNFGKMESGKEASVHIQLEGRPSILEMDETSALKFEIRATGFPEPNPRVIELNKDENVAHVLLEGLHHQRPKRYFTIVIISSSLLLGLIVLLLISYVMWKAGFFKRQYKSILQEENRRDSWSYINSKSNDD
Chain of α4β1 (P05556 21-798): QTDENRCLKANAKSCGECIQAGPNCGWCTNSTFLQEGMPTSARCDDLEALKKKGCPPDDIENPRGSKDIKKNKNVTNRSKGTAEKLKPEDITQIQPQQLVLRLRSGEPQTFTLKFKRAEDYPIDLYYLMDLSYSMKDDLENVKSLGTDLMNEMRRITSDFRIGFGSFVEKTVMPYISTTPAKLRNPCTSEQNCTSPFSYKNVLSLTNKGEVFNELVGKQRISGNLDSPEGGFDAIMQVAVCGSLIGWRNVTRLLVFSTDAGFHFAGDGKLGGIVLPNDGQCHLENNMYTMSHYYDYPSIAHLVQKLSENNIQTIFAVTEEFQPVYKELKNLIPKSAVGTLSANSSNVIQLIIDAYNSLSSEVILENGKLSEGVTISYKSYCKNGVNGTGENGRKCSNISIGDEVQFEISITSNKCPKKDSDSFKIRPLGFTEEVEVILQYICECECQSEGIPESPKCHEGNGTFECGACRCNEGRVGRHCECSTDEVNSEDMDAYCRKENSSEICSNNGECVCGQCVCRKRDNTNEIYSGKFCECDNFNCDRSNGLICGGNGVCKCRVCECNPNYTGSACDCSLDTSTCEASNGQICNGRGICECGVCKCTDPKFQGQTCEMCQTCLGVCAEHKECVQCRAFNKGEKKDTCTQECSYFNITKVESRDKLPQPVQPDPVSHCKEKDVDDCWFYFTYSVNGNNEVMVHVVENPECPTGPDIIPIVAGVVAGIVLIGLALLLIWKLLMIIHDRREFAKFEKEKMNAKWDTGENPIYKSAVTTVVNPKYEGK

T1 sequence (P13612 34-1032): as the sequence (P13612 34-1032) above
T1 sequence (P26010 20-798): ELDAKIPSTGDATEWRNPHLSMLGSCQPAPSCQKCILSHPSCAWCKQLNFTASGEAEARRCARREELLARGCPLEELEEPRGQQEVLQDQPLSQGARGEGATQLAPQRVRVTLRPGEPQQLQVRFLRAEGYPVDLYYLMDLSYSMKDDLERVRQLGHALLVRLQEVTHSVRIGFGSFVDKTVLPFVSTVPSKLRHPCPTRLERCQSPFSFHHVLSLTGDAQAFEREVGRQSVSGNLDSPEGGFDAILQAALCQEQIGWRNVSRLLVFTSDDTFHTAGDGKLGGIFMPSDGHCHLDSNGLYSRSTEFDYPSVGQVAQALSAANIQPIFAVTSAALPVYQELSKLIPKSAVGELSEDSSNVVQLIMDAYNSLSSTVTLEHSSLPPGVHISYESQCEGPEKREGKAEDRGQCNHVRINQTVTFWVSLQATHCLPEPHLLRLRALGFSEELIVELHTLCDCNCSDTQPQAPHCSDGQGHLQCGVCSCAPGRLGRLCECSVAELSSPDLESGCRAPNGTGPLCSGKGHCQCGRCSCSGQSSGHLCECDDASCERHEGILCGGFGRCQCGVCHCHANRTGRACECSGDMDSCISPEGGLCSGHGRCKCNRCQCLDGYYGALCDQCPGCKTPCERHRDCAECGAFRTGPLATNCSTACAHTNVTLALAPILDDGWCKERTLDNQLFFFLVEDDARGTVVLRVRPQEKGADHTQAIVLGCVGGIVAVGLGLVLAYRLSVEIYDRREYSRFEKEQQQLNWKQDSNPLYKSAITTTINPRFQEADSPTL

As a reminder, the IC50 is the concentration that inhibits the measured activity by half. For `CC(=O)Oc1ccccc1C(=O)n1c(-c2ccccc2)cc2ccccc21` [Cmpd D], the IC50 against α4β7 is 4 µM; against αdβ2, more than 40 µM; on α4β1, more than 40 µM.

For the molecule `O=C(NCc1cccnc1)c1ccccc1C(=O)Nc1sc2ccccc2c1Cl` [Cmpd K], the IC50 against α4β7 is 4 µM; at αdβ2, more than 40 µM; at α4β1 it was more than 40 µM.

As for `Nc1ccc(Sc2ccc(NC(=O)CCc3ccccc3)cc2)c(Cl)c1` [Cmpd W], the values for the IC50 on α4β7, at αdβ2 and at α4β1 were 5 µM, more than 40 µM and more than 40 µM, respectively.

Turning to `CC(CN(C)C)NCc1ccccc1Sc1ccc(C(C)(C)C)cc1` (stereo not drawn) [Cmpd Z], the half-inhibitory concentration (IC50) against α4β7 is 11 µM; against αdβ2, more than 40 µM; against α4β1 it was more than 40 µM.
